Assay results from patent publication US20090233976A1, “Antimitotic Rhizoxin Deritivatives of Burkholderia Rhizoxina, Method for Producing Said Derivatives and Use Thereof” (priority 2005, published 2009).
In brackets after ≈: the same amount, converted by molar mass.

Key:
human cancer cell lines = settings: a number of human cancer cell lines, particularly vincristin-resistent cells; cited from earlier work
[1] = cytotoxicity test on HeLa human cervix carcinoma line; type: cell-based; settings: HeLa human cervix carcinoma cells, cytotoxic
From the text: (§1) The inventive substances 1-4 show very strong antiproliferative and cytotoxic effects (e.g. for L-929 mouse fibroblast, K-562 human leukemia cells and HeLa human cervix carcinoma line) and an antifungal activity (e.g. against Glomerella cingulata, Penicillium notatum, Fusarium culmorum, Hamigera avellanea, Aspergillus fumigatus). (See Table 1.)
(§2) The examination of the antiproliferative and cytotoxic properties of the substances 1-4 has been performed via the method described in the literature (H. M. Dahse, B. Schlegel, U. Gräfe, Pharmazie 2001, 56, 489-491). The antifungal activity has been determined via the agar diffusion test. (See Table 2.)

[2] = system: K-562 human leukemia cells; assay: antiproliferative test on K-562 human leukemia cells; type: cell-based; settings: K562
From the text: as §1, §2

L-929 mouse fibroblast = assay: antiproliferative test on L-929 mouse fibroblasts; type: cell-based; settings: L929
From the text: as §1, §2

| SMILES | activity against human cancer cell lines (human cancer cell lines) | CC50 [1] [ng/mL] | GI50 [2] [ng/mL] | GI50 (L-929 mouse fibroblast) [ng/mL] |
| --- | --- | --- | --- | --- |
| CO[C@@H](/C(C)=C/C=C/C(C)=C/c1coc(C)n1)[C@@H](C)[C@@H]1C[C@H](O)[C@@]2(C)O[C@@H]2/C=C/[C@@H](C)[C@H]2C[C@H](CC(=O)O2)C[C@@H]2O[C@H]2C(=O)O1 [Rhizoxin] | high activity | – | – | – |
| CC(/C=C/C=C(\C)[C@H](O)[C@@H](C)C1C[C@H](O)C2(C)O[C@@H]2/C=C/[C@@H](C)[C@H](O)C[C@H](CC(=O)O)C/C=C/C(=O)O1)=C\c1coc(C)n1 (some centres unmarked) [Substance 1] | – | 90 (≈ 147 nM) | 15 (≈ 24.4 nM) | – |
| COC(=O)C[C@@H]1C/C=C/C(=O)OC([C@H](C)[C@@H](O)/C(C)=C/C=C/C(C)=C/c2coc(C)n2)C[C@H](O)C2(C)O[C@@H]2/C=C/[C@@H](C)[C@H](O)C1 (some centres unmarked) [Substance 2] | – | 0.28 (≈ 0.446 nM) | 0.03 (≈ 0.0478 nM) | 50 (≈ 79.6 nM) |
| COC(=O)C[C@@H]1C/C=C/C(=O)OC([C@H](C)[C@@H](OC)/C(C)=C/C=C/C(C)=C/c2coc(C)n2)C[C@H](O)C2(C)O[C@@H]2/C=C/[C@@H](C)[C@H](O)C1 (some centres unmarked) [Substance 3] | – | < 0.03 | < 0.03 | 50 (≈ 77.9 nM) |
| COC(=O)C[C@@H]1C/C=C/C(=O)OC([C@H](C)[C@@H](OC)/C(C)=C/C=C/C(C)=C\c2coc(C)n2)C[C@H](O)C2(C)O[C@@H]2/C=C/[C@@H](C)[C@H](O)C1 (some centres unmarked) [Substance 4] | – | – | < 0.03 | 12 (≈ 18.7 nM) |
